Reference: US11219692B2, “Porphyrin modified telodendrimers” (THE REGENTS OF THE UNIVERSITY OF CALIFORNIA, priority 2012, dated 2022)

Legend:
[1] = test system: SKOV-3 ovarian cancer xenograft; assay: In vivo therapeutic study (PTT/PDT with or without DOX); set-up: species or system nude mice; conditions: DOX 2.5 mg/kg, NP 25 mg/kg, light 0.25 W cm^−2 for 2 min; versus PBS control
Description: Transgenic mice with mammary cancer (FVB/n Tg(MMTV-PyVmT) and nude mice bearing SKOV-3 ovarian cancer xenograft were used for the in vivo therapeutic studies. When tumor volumes reached 4-5 mm in transgenic mice, crosslinked NPs with and without 2.5 mg/kg DOX were injected via tail vein once per week for 3 doses. After 24 hrs, tumors were illuminated with a diode laser system (Applied Optronics, Newport, Conn.) at 690 nm under general anaesthesia. […] Tumor temperatures were recorded with an infrared camera (Flir). Intratumoral ROS production after irradiation was measured using 2′,7′-dichlorofluorescin diacetate (DCF) mixed with 100 μL of tissue lysates derived from tumors treated with NPs and PBS. In some cases, the blood of the mice was drawn and the ROS and heat production in blood after irradiation were measured at predetermined time points. The hemolysis was also followed. Tumor volume was measured twice a week and mice were sacrificed once tumor size reached 1000 mm^3. Tumors were harvested for histopathological evaluation 24 hours post-irradiation. The SKOV-3 ovarian cancer xenograft model was established by injecting one million cells subcutaneously at lower flank area. […] Tumor sizes and body weight were measured twice a week, while mice were monitored daily for potential signs of toxicity. […]

[2] = test system: SKOV-3 ovarian cancer cells; assay: Cytotoxicity under dark conditions; type: cell-based, human; conditions: up to 1.0 mg/mL, 2 hrs exposure plus 22 hrs
Description: K9TCC-Pu-In and 5637 bladder cancer cell lines and SKOV-3 ovarian cancer cell lines were used to evaluate the photosensitizing function of nano-porphyrins. […] 5-aminolevulinic acid (5-ALA), the traditional photodynamic diagnosis/therapy agent, was used as a control. In another experiments, DOX loaded nanoporphyrins were used to treat the cancer cells followed by light exposure. […]

Row | Compound | tumor growth [1] | cytotoxicity without light irradiation [2]
1 | COc1cccc2c1C(=O)c1c(O)c3c(c(O)c1C2=O)C[C@@](O)(C(=O)CO)C[C@@H]3O[C@H]1C[C@H](N)[C@H](O)[C@H](C)O1 [free DOX, doxorubicin] | slower tumor growth | 
2 | pyropheophorbide-a [free Por] |  | significant cytoxicity
